Calls of active or inactive are those of the source. The rule behind the calls is not given here.
Tests used:
T47D [1] = experiment: Estrogen-like activity in human T47D cells assessed as increase in cell proliferation after 96 hrs by alamar blue assay; format: functional, cell-based
T47D [2] = experiment: Antiestrogenic activity in human T47D cells assessed as compound concentration required to decrease 100 pM E2-induced cell proliferation to equivalent levels induced by 10 pM E2 after 96 hrs by alamar blue assay; format: functional
MCF7 [3] = experiment: Antiestrogenic activity in human MCF7 cells assessed as compound concentration required to decrease 100 pM E2-induced cell proliferation to equivalent levels induced by 10 pM E2 after 96 hrs by alamar blue assay; format: functional
MCF7 [4] = experiment: Antiestrogenic activity in human MCF7 cells assessed as compound concentration required to decrease 100 pM E2-induced cell proliferation to equivalent levels induced by 1 pM E2 after 96 hrs by alamar blue assay; format: functional
MCF7 [5] = experiment: Estrogen-like activity in human MCF7 cells assessed as increase in cell proliferation after 96 hrs by alamar blue assay; format: functional, cell-based
T47D [6] = experiment: Antiestrogenic activity in human T47D cells assessed as inhibition of E2-induced cell proliferation up to 10 uM after 96 hrs by alamar blue assay relative to control; format: functional
T47D [7] = experiment: Antiestrogenic activity in human T47D cells assessed as compound concentration required to decrease 100 pM E2-induced cell proliferation to equivalent levels induced by 50 pM E2 after 96 hrs by alamar blue assay; format: functional
Leishmania major = experiment: Leishmanicidal activity against Leishmania major promastigotes at 100 ug/ml after 48 hrs by MTT assay; format: functional, organism-based
MCF7 [8] = experiment: Antiestrogenic activity in human MCF7 cells assessed as compound concentration required to decrease 100 pM E2-induced cell proliferation to equivalent levels induced by 50 pM E2 after 96 hrs by alamar blue assay; format: functional
MCF7 [9] = experiment: Antiestrogenic activity in human MCF7 cells assessed as inhibition of E2-induced cell proliferation up to 10 uM after 96 hrs by alamar blue assay relative to control; format: functional
T47D [10] = experiment: Antiestrogenic activity in human T47D cells assessed as compound concentration required to decrease 100 pM E2-induced cell proliferation to equivalent levels induced by 1 pM E2 after 96 hrs by alamar blue assay; format: functional

Structure (SMILES) | Activity (T47D [1]) | Activity (T47D [2]) | Activity (MCF7 [3]) | Activity (MCF7 [4]) | Activity (MCF7 [5]) | inhibition (INH) (T47D [6]) | Activity (T47D [7]) | Activity (Leishmania major) | Activity (MCF7 [8]) | inhibition (INH) (MCF7 [9]) | Activity (T47D [10])
COc1cc([C@H]2OC[C@H]3[C@@H]2CO[C@@H]3c2ccc3c(c2)OCO3)c(O[C@@H]2O[C@H](CO)[C@@H](O)[C@H](O)[C@H]2O)c(OC)c1OC | inactive | <0.01 µM | <0.01 µM | 3.5 µM | inactive | >90% | <0.01 µM | inactive | <0.01 µM | – | –
COc1cc([C@@H]2OC[C@H]3[C@@H]2CO[C@@H]3c2cc(OC)c(OC)c(OC)c2O[C@@H]2O[C@H](CO)[C@@H](O)[C@H](O)[C@H]2O)c(O)c(OC)c1OC | inactive | – | <0.01 µM | – | inactive | – | <0.1 µM | inactive | <0.01 µM | >90% | –
COc1cc([C@H]2OC[C@H]3[C@@H]2CO[C@@H]3c2cc(OC)c(OC)c(OC)c2O[C@@H]2O[C@H](CO)[C@@H](O)[C@H](O)[C@H]2O)cc(OC)c1OC | inactive | <0.01 µM | 9.8 µM | – | inactive | >90% | <0.01 µM | inactive | <0.01 µM | >50% | –
CC/C(=C(\c1ccccc1)c1ccc(OCCN(C)C)cc1)c1ccccc1 [TAMOXIFEN] | – | 0.9 µM | 0.3 µM | 4.5 µM | – | – | 0.1 µM | – | 0.1 µM | – | 7 µM
COc1cc([C@@H]2OC[C@@H]3[C@H]2CO[C@H]3c2cc(O[C@@H]3O[C@H](CO)[C@@H](O)[C@H](O)[C@H]3O)c(OC)c(OC)c2OC)c(OC)c(OC)c1OC | inactive | 1 µM | – | – | inactive | >50% | <0.01 µM | inactive | <0.01 µM | – | –
COc1cc([C@H]2OC[C@H]3[C@@H]2CO[C@@H]3c2cc(O)c(OC)c(OC)c2O[C@@H]2O[C@H](CO)[C@@H](O)[C@H](O)[C@H]2O)cc2c1OCO2 | inactive | – | <0.1 µM | – | inactive | – | 10 µM | inactive | <0.01 µM | >90% | –
COc1cc([C@H]2OC[C@H]3[C@@H]2CO[C@@H]3c2cc(OC)c3c(c2)OCO3)cc(O[C@@H]2O[C@H](CO)[C@@H](O)[C@H](O)[C@H]2O)c1OC | inactive | <0.01 µM | – | – | inactive | >90% | <0.01 µM | inactive | <0.01 µM | – | –
COc1cc([C@@H]2OC[C@@H]3[C@H]2CO[C@H]3c2cc(O)c(OC)c(OC)c2O[C@@H]2O[C@H](CO)[C@@H](O)[C@H](O)[C@H]2O)c(OC)c(OC)c1OC | inactive | – | – | – | inactive | – | <0.01 µM | inactive | <0.01 µM | – | –
COc1c(O)cc([C@@H]2OC[C@@H]3[C@H]2CO[C@H]3c2cc(O[C@@H]3O[C@H](CO)[C@@H](O)[C@H](O)[C@H]3O)c(OC)c(OC)c2OC)c(OC)c1OC | inactive | – | <0.1 µM | – | inactive | – | <0.01 µM | inactive | <0.01 µM | >90% | –
COc1c(O)cc([C@H]2OC[C@H]3[C@@H]2CO[C@@H]3c2cc3c(c(OC)c2OC)OCO3)c(O[C@@H]2O[C@H](CO)[C@@H](O)[C@H](O)[C@H]2O)c1OC | inactive | – | <0.01 µM | – | inactive | – | <0.01 µM | inactive | <0.01 µM | >90% | –
COc1cc([C@H]2OC[C@H]3[C@@H]2CO[C@@H]3c2cc(OC)c(OC)c(OC)c2O[C@@H]2O[C@H](CO)[C@@H](O)[C@H](O)[C@H]2O)cc2c1OCO2 | inactive | – | – | – | inactive | – | – | inactive | <0.01 µM | – | –
COc1cc([C@H]2OC[C@H]3[C@@H]2CO[C@H]3c2cc(OC)c(OC)c(OC)c2O[C@@H]2O[C@H](CO)[C@@H](O)[C@H](O)[C@H]2O)cc2c1OCO2 | inactive | – | 0.6 µM | – | inactive | – | 5.6 µM | inactive | <0.01 µM | >50% | –
COc1cc([C@H]2OC[C@H]3[C@@H]2CO[C@@H]3c2cc(OC)c(OC)c(OC)c2O[C@@H]2O[C@H](CO)[C@@H](O)[C@H](O)[C@H]2O)c(O)c(OC)c1OC | inactive | – | – | – | inactive | – | <0.01 µM | inactive | <0.01 µM | – | –
COc1c(O)cc([C@H]2OC[C@H]3[C@@H]2CO[C@@H]3c2ccc3c(c2)OCO3)c(O[C@@H]2O[C@H](CO)[C@@H](O)[C@H](O)[C@H]2O)c1OC | inactive | – | – | – | inactive | – | <0.01 µM | inactive | <0.01 µM | – | –

From ChEMBL document CHEMBL4428032, “Furofuran Lignan Glucosides with Estrogen-Inhibitory Properties from the Bangladeshi Medicinal Plant Terminalia citrina” (2016)
